Results published in ChEMBL document CHEMBL1201862, “PubChem BioAssay data set” (2004).
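Values below derive from 48-hour exposures of cells grown in 96-well plates, with endpoints linearly interpolated between the two concentrations bracketing the appropriate inhibition level. GI50 = concentration required for 50% inhibition of growth.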 Active and inactive are the calls of the source. Cut-off read from the data, not from the text of the source: active = GI50 up to about 1.1 µM and inactive = higher.

How the values were obtained:
Test in all cases: NCI tumour cell line growth inhibition, 48 h
Hs-578T = tested on: Hs-578T
HCT-116 = tested on: HCT-116
OVCAR-3 = tested on: OVCAR-3
SF-268 = tested on: SF-268
786-0 = tested on: 786-0
IGROV-1 = tested on: IGROV-1
SK-MEL-2 = tested on: SK-MEL-2
COLO 205 = tested on: COLO 205
SF-539 = tested on: SF-539
A549 = tested on: A549
MDA-N = tested on: MDA-N
UACC-257 = tested on: UACC-257
RPMI-8226 = tested on: RPMI-8226
SF-295 = tested on: SF-295
HCT-15 = tested on: HCT-15
SK-MEL-28 = tested on: SK-MEL-28
NCI-H460 = tested on: NCI-H460
BT-549 = tested on: BT-549
HOP-92 = tested on: HOP-92
NCI-H23 = tested on: NCI-H23
HL-60 = tested on: HL-60
MCF7 = tested on: MCF7
MDA-MB-231 = tested on: MDA-MB-231
NCI-H226 = tested on: NCI-H226
TK-10 = tested on: TK-10
K562 = tested on: K562
A498 = tested on: A498
ACHN = tested on: ACHN
RXF 393 = tested on: RXF 393
SN12C = tested on: SN12C
SK-MEL-5 = tested on: SK-MEL-5
OVCAR-8 = tested on: OVCAR-8
U-251 = tested on: U-251
SNB-75 = tested on: SNB-75
NCI/ADR-RES = tested on: NCI/ADR-RES
HCC 2998 = tested on: HCC 2998
UO-31 = tested on: UO-31
SR = tested on: SR
SNB-19 = tested on: SNB-19
SW-620 = tested on: SW-620
OVCAR-4 = tested on: OVCAR-4
OVCAR-5 = tested on: OVCAR-5
M14 = tested on: M14
MOLT-4 = tested on: MOLT-4
UACC-62 = tested on: UACC-62
SK-OV-3 = tested on: SK-OV-3
T47D = tested on: T47D
LOX IMVI = tested on: LOX IMVI
HT-29 = tested on: HT-29
DU-145 = tested on: DU-145
CAKI-1 = tested on: CAKI-1
HOP-62 = tested on: HOP-62
MDA-MB-435 = tested on: MDA-MB-435
EKVX = tested on: EKVX
CCRF-CEM = tested on: CCRF-CEM
NCI-H522 = tested on: NCI-H522
KM12 = tested on: KM12
Malme-3M = tested on: Malme-3M
PC-3 = tested on: PC-3

## CCOC(=O)/C=C(/C(=O)OCC)n1cc(C)c(=O)n(Cc2cn(COCCOC(C)=O)nn2)c1=O
Hs-578T
  GI50: 26.3 µM (inactive)
HCT-116
  GI50: 20.7 µM (inactive)
OVCAR-3
  GI50: 24.7 µM (inactive)
SF-268
  GI50: 19.5 µM (inactive)
786-0
  GI50: 20 µM (inactive)
IGROV-1
  GI50: 17.2 µM (inactive)
SK-MEL-2
  GI50: 45.8 µM (inactive)
COLO 205
  GI50: 7.82 µM (inactive)
SF-539
  GI50: 15.9 µM (inactive)
A549
  GI50: > 100 µM (inactive)
MDA-N
  GI50: 38.3 µM (inactive)
UACC-257
  GI50: 20.7 µM (inactive)
RPMI-8226
  GI50: 17.9 µM (inactive)
SF-295
  GI50: > 100 µM (inactive)
HCT-15
  GI50: 20.7 µM
SK-MEL-28
  GI50: 19.8 µM (inactive)
NCI-H460
  GI50: > 40.6 µM (inactive)
BT-549
  GI50: 19.9 µM (inactive)
HOP-92
  GI50: 13.2 µM (inactive)
NCI-H23
  GI50: 6.18 µM (inactive)
HL-60
  GI50: 8.57 µM (inactive)
MCF7
  GI50: 16.5 µM (inactive)
MDA-MB-231
  GI50: 28.4 µM (inactive)
NCI-H226
  GI50: 21.1 µM (inactive)
TK-10
  GI50: 14.2 µM (inactive)
K562
  GI50: 7.18 µM (inactive)
A498
  GI50: 50.5 µM (inactive)
ACHN
  GI50: 7.06 µM (inactive)
RXF 393
  GI50: 23.7 µM (inactive)
SN12C
  GI50: 25.8 µM (inactive)
SK-MEL-5
  GI50: 24.9 µM (inactive)
OVCAR-8
  GI50: 16.2 µM (inactive)
U-251
  GI50: 26.3 µM (inactive)
SNB-75
  GI50: 33.2 µM (inactive)
NCI/ADR-RES
  GI50: 21 µM (inactive)
HCC 2998
  GI50: 17.3 µM (inactive)
UO-31
  GI50: 1.07 µM (active)
SR
  GI50: 20.9 µM (inactive)
SNB-19
  GI50: > 52.6 µM (inactive)
SW-620
  GI50: 6.84 µM (inactive)
OVCAR-4
  GI50: 20 µM (inactive)
OVCAR-5
  GI50: 27.8 µM (inactive)
M14
  GI50: 46 µM (inactive)
MOLT-4
  GI50: 15 µM (inactive)
UACC-62
  GI50: 17.1 µM (inactive)
SK-OV-3
  GI50: > 100 µM (inactive)
T47D
  GI50: 25.8 µM (inactive)
LOX IMVI
  GI50: 22.2 µM (inactive)
HT-29
  GI50: 16.1 µM (inactive)
DU-145
  GI50: 36.3 µM (inactive)
CAKI-1
  GI50: 9.59 µM (inactive)
HOP-62
  GI50: > 100 µM (inactive)
MDA-MB-435
  GI50: 18.3 µM (inactive)
EKVX
  GI50: 16.7 µM (inactive)
CCRF-CEM
  GI50: 0.984 µM (active)
NCI-H522
  GI50: 2.49 µM (inactive)
KM12
  GI50: 23.1 µM (inactive)
Malme-3M
  GI50: 11 µM (inactive)
PC-3
  GI50: 37.3 µM (inactive)

## COCn1c(C)c(C)c2c(=O)oc(C)nc21
Hs-578T
  GI50: > 100 µM (inactive)
HCT-116
  GI50: > 100 µM (inactive)
SF-268
  GI50: > 100 µM (inactive)
786-0
  GI50: > 100 µM (inactive)
IGROV-1
  GI50: > 100 µM (inactive)
SK-MEL-2
  GI50: > 100 µM (inactive)
COLO 205
  GI50: > 100 µM (inactive)
SF-539
  GI50: > 100 µM (inactive)
A549
  GI50: > 100 µM (inactive)
MDA-N
  GI50: > 100 µM (inactive)
UACC-257
  GI50: > 100 µM (inactive)
RPMI-8226
  GI50: > 100 µM (inactive)
SF-295
  GI50: > 100 µM (inactive)
HCT-15
  GI50: > 100 µM
SK-MEL-28
  GI50: > 100 µM (inactive)
NCI-H460
  GI50: > 100 µM (inactive)
BT-549
  GI50: > 100 µM (inactive)
HOP-92
  GI50: > 100 µM (inactive)
NCI-H23
  GI50: > 100 µM (inactive)
HL-60
  GI50: > 100 µM (inactive)
MCF7
  GI50: > 100 µM (inactive)
MDA-MB-231
  GI50: > 100 µM (inactive)
NCI-H226
  GI50: > 100 µM (inactive)
TK-10
  GI50: > 100 µM (inactive)
K562
  GI50: > 100 µM (inactive)
A498
  GI50: > 100 µM (inactive)
ACHN
  GI50: > 100 µM (inactive)
RXF 393
  GI50: > 100 µM (inactive)
SN12C
  GI50: > 100 µM (inactive)
SK-MEL-5
  GI50: > 100 µM (inactive)
OVCAR-8
  GI50: > 100 µM (inactive)
U-251
  GI50: > 100 µM (inactive)
SNB-75
  GI50: 83.4 µM (inactive)
NCI/ADR-RES
  GI50: > 100 µM (inactive)
HCC 2998
  GI50: > 100 µM (inactive)
UO-31
  GI50: 89.1 µM (inactive)
SR
  GI50: > 100 µM (inactive)
SNB-19
  GI50: > 100 µM (inactive)
SW-620
  GI50: > 100 µM (inactive)
OVCAR-4
  GI50: > 100 µM (inactive)
OVCAR-5
  GI50: > 100 µM (inactive)
M14
  GI50: > 100 µM (inactive)
MOLT-4
  GI50: > 100 µM (inactive)
UACC-62
  GI50: > 100 µM (inactive)
SK-OV-3
  GI50: > 100 µM (inactive)
T47D
  GI50: > 100 µM (inactive)
LOX IMVI
  GI50: > 100 µM (inactive)
HT-29
  GI50: > 100 µM (inactive)
DU-145
  GI50: > 100 µM (inactive)
CAKI-1
  GI50: 0.288 µM (active)
HOP-62
  GI50: 70.8 µM (inactive)
MDA-MB-435
  GI50: > 100 µM (inactive)
EKVX
  GI50: > 100 µM (inactive)
CCRF-CEM
  GI50: > 100 µM (inactive)
NCI-H522
  GI50: 94.2 µM (inactive)
KM12
  GI50: > 100 µM (inactive)
Malme-3M
  GI50: > 100 µM (inactive)
PC-3
  GI50: > 100 µM (inactive)
